The subject of assay [1] is HUMAN RSV-A (“LONG” STRAIN). Put plainly: RSV-A assay (CPE, ATPlite) in Hep-2 cells. Format: cell-based. Conditions: human respiratory syncytial virus, 120 h, MOI 0.1, 5-day incubation. An excerpt: Methods for RSV-A Assay Hep-2 cells, (originally derived from tumors grown in irradiated-cortisonised weanling rats that had been injected with epidermoid carcinoma tissue from the larynx of a person, but later found to be indistinguishable from HeLa cells by PCR DNA analysis), were used for the culturing of genotype A, “Long” strain RSV. Flasks were inoculated with RSV and viral stocks were collected once cytopathic effect (CPE) was greater than 90%. Viral stocks in 25% sucrose media were snap frozen using liquid nitrogen to increase viral stability. Viral stock titers were quantified by tissue culture infectious dose 50% (TCID50) using 8,000 cells per well and 3-fold viral dilutions across a 96-well plate, cultured for 4 days. Viral stock titers were also quantified by a plaque forming unit assay, as described elsewhere.
Following extensive parameter testing, the final assay is run as follows: Hep-2 cells are seeded into the inner 60 wells of a 96-well plate at 8,000 cells per well in a volume of 50 μL using Growth Media (DMEM without phenol red, 1% L-Glut, 1% Penn/Strep, 1% nonessential amino acids, 10% heat-inactivated FBS). 2-fold serial dilutions of control and test compounds are added to the wells in duplicate in a total volume of 25 μL. Viral stock is then added to the wells at a multiplicity of infection (MOI) of 0.1 in a volume of 25 μL, bringing the total volume of each well to 100 μL. The MOI is calculated using the PFU/mL, or TCID50 if unavailable. Each 96-well plate has a control column of 6 wells with cells and virus but no compound (negative control, max CPE), a column with cells but no compound or virus (positive control, minimum CPE), and a column with no cells or virus or compound (background plate/reagent control). The control wells with cells but no virus are given an additional 25 μL of growth media containing an equal quantity of sucrose as those wells receiving the viral stock in order to keep consistent in media and volume conditions. The outer wells of the plate are filled with 125 μL of moat media (DMEM, 1% Penn/Strep) to act as a thermal and evaporative moat around the test wells. Following a 5-day incubation period, the plates are read using ATPlite (50 uL added per well), which quantifies the amount of ATP (a measure of cell health) present in each well. Assay plates are read using the Envision luminometer. […] EC50 ranges are as follows: A<0.2 μM; B>0.2 μM.

In the next assay the test system is hMPV A2 TN/94-49. Put plainly: HMPV antiviral assay Method 2 (LLC-MK2 cells with CP-100-356, ATP-Lite). Conditions: hMPV A2 TN/94-49, LLC-MK2 cells, 4 μM CP-100-356, Method 2. The format is cell-based. Here is the method:
In vitro HMPV antiviral activity was evaluated using the clinical isolate A2 strain TN 94-49 (obtained from Dr. John Williams, Vanderbilt University, Tennessee) and LLC-MK2 cells (Millipore Sigma CB_85062804), an immortalized kidney epithelial cell line from Macaca mulatta. Compounds were resuspended in dimethyl sulfoxide (DMSO) at 10 mM, serially diluted and added to a 384-well source plate. Subsequently, the compounds were diluted and transferred onto 384-well assay plates using the Echo-650 automated liquid handling system (Beckman Coulter, Indiana). The test compounds were assessed in duplicate at a top concentration of 200 nM followed by 2.5-fold serial dilutions to give a total of 10 concentration points. DMSO control wells were also included on the assay plates and were either infected or not, acting as positive and negative controls. A2 TN 94-49 virus infections were performed in-suspension with LLC-MK2 cells. The cells were washed twice with PBS and removed from the cell-culture flask with 0.25% trypsin-EDTA (Thermo Fisher Scientific, MA). The trypsin-EDTA was inactivated by resuspending in 2% fetal bovine serum (FBS) and OptiMEM (ThermoFisher Scientific, MA) containing 1% antibiotic-antimycotic. Cells were pelleted by centrifuging for 5 minutes at 800 rpm, the supernatant was removed, and cells were re-suspended and washed in PBS plus 100 μg/mL CaCl2). This step was performed twice. Cells were then re-suspended in serum-free (SF)-OptiMEM containing 4 μg/mL TPCK-Trypsin (Sigma Aldrich, MO), 1% antibiotic-antimycotic (ThermoFisher Scientific, MA), 100 μg/mL CaCl2), and 4 μM of CP-100-356, a P-glycoprotein inhibitor. Cells were counted and seeded at a density of 5,000 cells/well, 12.5 μL/well. Virus infections were done at a multiplicity of infection (MOI) of 0.16 with 12.5 μL added per well. Virus infections were performed in infection media which contained SF-OptiMEM, 100 μg/mL CaCl2) and 1% antibiotic-antimycotic. HMPV viral stocks are suspended in infection media+5% glycerol, thus an equal volume of infection media+5% glycerol was added to uninfected wells to equalize the final % glycerol across all wells of the assay plate. The final concentration of TPCK-trypsin was 2 μg/mL. The final concentration of CP-100-356 was 2 μM. The assay plates were incubated at 37° C., 5% CO2 for 7 days. After 7 days incubation, 12.5 μL of ATP-Lite (PerkinElmer, MA) was added to each well and the raw luminescence values were determined using the Envision 2104 (Perkin Elmer, MA). The average of the raw luminescence values for the cells and virus only positive control wells was subtracted from all conditions tested and the percent cell health was determined by dividing these values by the average of the cells only negative control wells. EC50 values were then calculated by non-linear regression using a four-parameter curve logistic equation. The curve fit model employed was XLFit Dose Response One Site Model 200: y=(A+(B/(1+((x/C)^D)))), where A is the minimum y value, B is the maximum y value, C is the log EC50value, and D is the slope factor.

Regarding `COc1cc(C(=O)NC[C@@](O)(c2ccc(=O)[nH]c2)c2cc3c(c(-c4cc(Cl)c(F)cc4F)n2)OC[C@]3(C)C(N)=O)cc2cn(C3CC3)nc12` [Example 505], the figures for the concentration for a half-maximal effect (EC50) (in assay [1]; in the assay with hMPV A2 TN/94-49) were below 200 nM and above 200 nM, respectively. For `C[C@]1(C(N)=O)COc2c1cc([C@@](O)(CNC(=O)c1cc(Cl)c3[nH]ncc3c1)c1ccccc1)nc2-c1cc(Cl)c(F)cc1F` [Example 117], the half-maximal effective concentration (EC50) in assay [1] was below 200 nM; in the assay with hMPV A2 TN/94-49 it was above 200 nM.

Turning to `C[C@]1(C(N)=O)COc2c1cc([C@@](O)(CNC(=O)c1cc(OC3CC3)c3ncc(Cl)cc3c1)c1ccccc1)nc2-c1cc(Cl)c(F)cc1F` [Example 196], the 50% effective concentration (EC50) (in assay [1]; in the assay on hMPV A2 TN/94-49) was below 200 nM in each case. As to `COc1cc(C(=O)NC[C@@](O)(c2ccc(S(C)(=O)=O)cc2)c2cc3c(c(-c4cc(Cl)c(F)cc4F)n2)OC[C@]3(C)C(N)=O)cc2cn(C3CC3)nc12` [Example 482], the results for the half-maximal effective concentration (EC50) (in assay [1]; with hMPV A2 TN/94-49) were below 200 nM and above 200 nM, respectively.

`COc1cc(C(=O)NC[C@@](O)(c2ccccc2)c2cc3c(c(-c4cc(F)c(F)cc4F)n2)OC[C@]3(C)C(N)=O)cc2oc(C)nc12` [Example 193]: the EC50 (in assay [1]; with hMPV A2 TN/94-49) was below 200 nM in each case. With `COc1cc(C(=O)NC[C@@](O)(c2ccccc2)c2cc3c(c(-c4cc(F)c(F)cc4F)n2)OC[C@]3(C)C(N)=O)cc2oc(C3CC3)nc12` [Example 195], the concentration giving a half-maximal response (EC50) (in assay [1]; in the assay on hMPV A2 TN/94-49) was below 200 nM in each case.

For `COc1cc(C(=O)NC[C@@](O)(c2cccc(F)n2)c2cc3c(c(-c4cc(Cl)c(F)cc4F)n2)OC[C@]3(C)C(N)=O)cc2cc(C3CC3)nn12` [Example 206], the EC50 (in assay [1]; in the assay on hMPV A2 TN/94-49) was below 200 nM throughout.

`COc1cc(C(=O)NCC(O)(c2cc(F)nc(F)c2)c2cc3c(c(-c4cccc(Cl)c4Cl)n2)OC[C@]3(C)C(N)=O)cc2cn(C(F)F)nc12` (stereo partly drawn) [Example 500]: the EC50 (in assay [1]; in the assay on hMPV A2 TN/94-49) was below 200 nM throughout. Regarding `Cc1nc2c(OC(F)F)cc(C(=O)NC[C@](O)(c3cc4c(c(-c5cc(Cl)c(F)cc5F)n3)OC[C@]4(C)C(N)=O)c3ccccc3F)cc2cc1Br` [Example 139], the EC50 in assay [1] was below 200 nM; in the assay on hMPV A2 TN/94-49, above 200 nM. In the same order, the values of `C[C@]1(C(N)=O)COc2c1cc([C@@](O)(CNC(=O)c1cc(Cl)c3nn(C4CC4)cc3c1)c1ccccc1)nc2-c1cc(Cl)c(F)cc1F` [Example 99] are below 200 nM and below 200 nM.

Consider `COc1cc(C(=O)NC[C@@](O)(c2cccc(F)c2)c2cc3c(c(-c4cccc(Cl)c4Cl)n2)OC[C@]3(C)C(N)=O)cn2cc(C3CC3)nc12` [Example 337], for which the concentration giving a half-maximal response (EC50) (in assay [1]; in the assay on hMPV A2 TN/94-49) was below 200 nM in each case. Consider `C[C@]1(C(N)=O)COc2c1cc([C@@](O)(CNC(=O)c1ccc3nc(C4(F)CC4)oc3c1)c1ccccc1)nc2-c1cc(Cl)c(F)cc1F` [Example 219], for which the EC50 (in assay [1]; with hMPV A2 TN/94-49) was below 200 nM in each case. As to `C[C@]1(C(N)=O)COc2c1cc([C@@](O)(CNC(=O)c1cc(OC3CC3)c3nc(C4CC4)oc3c1)c1ccccc1)nc2-c1cc(Cl)c(F)cc1F` [Example 233], the 50% effective concentration (EC50) in the assay on hMPV A2 TN/94-49 is below 200 nM. Still for that read-out and setting: the same measure for `COc1cc(C(=O)NC[C@@](O)(c2cccc(F)c2)c2cc3c(c(-c4cccc(Cl)c4Cl)n2)OC[C@]3(C)C(N)=O)cc2cc(Cl)cnc12` [Example 333]: below 200 nM. Same read-out and setting: the value for `COc1cccc(-c2nc([C@@](O)(CNC(=O)c3cc(OC)c4nn(C5(F)CC5)cc4c3)c3ccccc3)cc3c2OC[C@]3(C)C(N)=O)c1Cl` [Example 374] was below 200 nM; that for `COc1cc(C(=O)NC[C@@](O)(c2ccccc2)c2cc3c(c(-c4ccc5c(c4)OC(F)(F)O5)n2)OC[C@]3(C)C(N)=O)cc2oc(C)nc12` [Example 201] was below 200 nM. Still for that read-out and setting: the same measure for `C[C@]1(C(N)=O)COc2c1cc([C@@](O)(CNC(=O)c1cc(OC(F)F)c3nc(C4CC4)oc3c1)c1ccccc1)nc2-c1cc(Cl)c(F)cc1F` [Example 216]: below 200 nM; for `COc1cc(C(=O)NC[C@@](O)(c2ccccc2)c2cc3c(c(-c4cc(S(C)(=O)=O)ccc4F)n2)OC[C@]3(C)C(N)=O)cc2cn(C3(F)CC3)nc12` [Example 372]: above 200 nM. On to `COc1cc(C(=O)NC[C@@](O)(c2ccccc2)c2cc3c(c(-c4ccc5c(c4)OC(F)(F)O5)n2)OC[C@]3(C)C(N)=O)cc2oc(C3CC3)nc12` [Example 200], for which the concentration giving a half-maximal response (EC50) with hMPV A2 TN/94-49 is below 200 nM.

`C[C@]1(C(N)=O)COc2c1cc([C@@](O)(CNC(=O)c1cc(C(F)F)c3nn(C4CC4)cc3c1)c1ccccc1)nc2-c1cc(Cl)c(F)cc1F` [Example 229]: the EC50 in the assay on hMPV A2 TN/94-49 is below 200 nM. Regarding `COc1cc(C(=O)NC[C@](O)(c2cc3c(c(-c4cc(Cl)c(F)cc4F)n2)OC[C@]3(C)C(N)=O)c2ccnn2C)cc2cn(C3CC3)nc12` [Example 481], in the assay on hMPV A2 TN/94-49, the EC50 was below 200 nM. For `C[C@]1(C(N)=O)COc2c1cc([C@@](O)(CNC(=O)c1ccc3nc(C4CC4)oc3c1)c1ccccc1)nc2-c1cc(C(F)F)c(F)cc1F` [Example 311], the concentration giving a half-maximal response (EC50) in the assay on hMPV A2 TN/94-49 is below 200 nM. Same read-out and setting: the same measure for `C[C@]1(C(N)=O)COc2c1cc([C@@](O)(CNC(=O)c1cc(OC3CC3)c3ncc(Cl)cc3c1)c1cccc(F)c1)nc2-c1cccc(Cl)c1Cl` [Example 334]: below 200 nM. In turn, `C[C@]1(C(N)=O)COc2c1cc([C@@](O)(CNC(=O)c1ccc3nc(C4CC4)oc3c1)c1ccccc1)nc2-c1cc(F)c(F)cc1F` [Example 194] yielded a half-maximal effective concentration (EC50) with hMPV A2 TN/94-49 below 200 nM. Take `C[C@]1(C(N)=O)COc2c1cc([C@@](O)(CNC(=O)c1ccc3nc(-c4ccc5nc(C(F)F)oc5c4)oc3c1)c1ccccc1)nc2-c1cc(Cl)c(F)cc1F` [Example 223]: in the assay on hMPV A2 TN/94-49, the 50% effective concentration (EC50) is above 200 nM. Still for that read-out and setting: the same measure for `COc1cc(C(=O)NC[C@@](O)(c2ccccc2)c2cc3c(c(-c4ccc5c(c4)OC(F)(F)O5)n2)OC[C@]3(C)C(N)=O)cc2cc(Cl)cnc12` [Example 202]: below 200 nM; for `COc1cc(C(=O)NC[C@@](O)(c2ccnc(F)c2)c2cc3c(c(-c4cccc(Cl)c4Cl)n2)OC[C@]3(C)C(N)=O)cc2cn(C3CC3)nc12` [Example 492]: below 200 nM. Still for that read-out and setting: the same measure for `CNc1cc([C@](O)(CNC(=O)c2cc(OC)c3nn(C4CC4)cc3c2)c2cc3c(c(-c4cc(Cl)c(F)cc4F)n2)OC[C@]3(C)C(N)=O)ccn1` [Example 490]: below 200 nM. `C[C@]1(C(N)=O)COc2c1cc([C@@](O)(CNC(=O)c1ccc3nc(C4CC4)oc3c1)c1cccc(F)c1)nc2-c1ccc(F)c(Cl)c1Cl` [Example 312] had an EC50 in the assay with hMPV A2 TN/94-49 below 200 nM. `COc1cc(C(=O)NC[C@@](O)(c2ccccc2)c2cc3c(c(-c4cc(Cl)c(F)cc4F)n2)OC[C@]3(C)C(N)=O)cc(O)c1NC(=O)C1(F)CC1` [Example 242] registered an EC50 with hMPV A2 TN/94-49 above 200 nM.

The values are drawn from US12358921B2, “Antiviral heterocyclic compounds” (priority 2022, dated 2025).
